From US8008291B2 (Mimetica Pty Ltd, priority 2008, dated 2011) come the findings set out here.

Bounds are passed on as bounds.

T1 sequence (P33032 whole entry): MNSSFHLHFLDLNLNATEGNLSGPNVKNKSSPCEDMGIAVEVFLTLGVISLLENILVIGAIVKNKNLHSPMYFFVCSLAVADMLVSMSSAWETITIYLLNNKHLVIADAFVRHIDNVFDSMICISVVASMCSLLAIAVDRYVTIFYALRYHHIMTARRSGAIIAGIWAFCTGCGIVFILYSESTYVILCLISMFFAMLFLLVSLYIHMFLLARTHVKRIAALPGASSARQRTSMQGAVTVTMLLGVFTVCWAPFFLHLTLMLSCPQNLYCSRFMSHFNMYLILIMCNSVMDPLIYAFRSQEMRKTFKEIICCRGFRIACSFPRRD

This assay addresses T1, human MC5R (hMC5R) (Homo sapiens, UniProt P33032).
T1 construct: purchased Perkin Elmer RBXMC5M400UA
In words: Human MC5R radioligand binding assay (membranes, [125I] NDP-MSH displacement). The settings on record: hMC5R binding; tested as trifluoroacetate or hydrochloride salts, or free bases; read-out: MC5R radioligand IC50. In a few lines:
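Frozen human MC5R membranes incubated with test compound and in-house iodogen-labeled, HPLC-purified [125I]NDP-MSH for 1 hr at 37° C. Binding measured as displacement of the radioligand.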
The IC50 is the concentration that gives 50% inhibition. For the compound `CC1CC(C)CC(CN2CC[C@@H](CNC(=O)/C=C/c3ccc(Cl)cc3)N[C@@H](CCN)C2=O)C1` (stereo partly drawn) [Compound 377, (E)-N-(((3S,5S)-3-(2-aminoethyl)-1-((3,5-dimethylcyclohexyl)methyl)-2-oxo-1,4-diazepan-5-yl)methyl)-3-(4-chlorophenyl)acrylamide], the IC50 was less than 1 µM. Consider `CC(=O)N[C@@H](Cc1cnc[nH]1)C(=O)N[C@@H](Cc1ccc2ccccc2c1)[C@@H]1CCN(CC(c2ccccc2)c2ccccc2)C(=O)[C@H](CCCNC(=N)N)N1` [Compound 81, (S)-2-acetamido-N-((S)-1-((3S,5S)-1-(2,2-diphenylethyl)-3-(3-guanidinopropyl)-2-oxo-1,4-diazepan-5-yl)-2-(naphthalen-2-yl)ethyl)-3-(1H-imidazol-5-yl)propanamide], for which the half-inhibitory concentration (IC50) is less than 1 µM. Under `CCCCC(CC)C(=O)NC[C@@H]1CCN(CC(c2ccccc2)c2ccccc2)C(=O)[C@H](CCCNC(=N)N)N1` (stereo partly drawn) [Compound 224, N-(((3S,5S)-1-(2,2-diphenylethyl)-3-(3-guanidinopropyl)-2-oxo-1,4-diazepan-5-yl)methyl)-2-ethylhexanamide] stands less than 1 µM; under `NCCC[C@@H]1N[C@H](CNC(=O)c2ccc3ccccc3c2)CCN(CC2(c3ccccc3)CCCCC2)C1=O` [Compound 325, N-(((3S,5S)-3-(3-aminopropyl)-2-oxo-1-((1-phenylcyclohexyl)methyl)-1,4-diazepan-5-yl)methyl)-2-naphthamide], less than 1 µM; under `NCCCC[C@@H]1N[C@H](CNC(=O)Cc2c[nH]c3ccccc23)CCN(Cc2cccc3ccccc23)C1=O` [Compound 120, N-(((3S,5S)-3-(4-aminobutyl)-1-(naphthalen-1-ylmethyl)-2-oxo-1,4-diazepan-5-yl)methyl)-2-(1H-indol-3-yl)acetamide], less than 10 µM.

As for `CCC(CN1CC[C@@H](CNC(=O)c2ccc(Cl)c(Cl)c2)N[C@@H](CCN2CCCCC2)C1=O)C1CC1` (stereo partly drawn) [Compound 486, 3,4-dichloro-N-(((3S,5S)-1-(2-cyclopropylbutyl)-2-oxo-3-(2-(piperidin-1-yl)ethyl)-1,4-diazepan-5-yl)methyl)benzamide], the IC50 is less than 1 µM. The value for `CC[C@H](CN1CC[C@@H](CNC(=O)c2ccc(Cl)c(Cl)c2)N[C@@H](CCN2CCN(C)CC2)C1=O)c1ccccc1` [Compound 431, 3,4-dichloro-N-(((3S,5S)-3-(2-(4-methylpiperazin-1-yl)ethyl)-2-oxo-1-((S)-2-phenylbutyl)-1,4-diazepan-5-yl)methyl)benzamide] was less than 0.1 µM; that for `N=C(N)NCCC[C@@H]1N[C@H](CNC(=O)c2ccc3ccccc3c2)CCN(C[C@@H](NC(=O)c2ccccc2)c2ccccc2)C1=O` [Compound 287, N-(((3S,5S)-1-((S)-2-benzamido-2-phenylethyl)-3-(3-guanidinopropyl)-2-oxo-1,4-diazepan-5-yl)methyl)-2-naphthamide] was less than 1 µM. The value for `O=C(NC[C@@H]1CCN(CC(c2ccccc2)c2ccccc2)C(=O)[C@H](CCN2CCOCC2)N1)c1ccc2cc(Cl)ccc2c1` [Compound 514, 6-chloro-N-(((3S,5S)-1-(2,2-diphenylethyl)-3-(2-morpholinoethyl)-2-oxo-1,4-diazepan-5-yl)methyl)-2-naphthamide] was less than 0.1 µM; that for `CC[C@H](CN1CC[C@@H](CNC(=O)c2ccc(Cl)c(Cl)c2)N[C@@H](CCN)C1=O)c1ccccc1` [Compound 464, N-(((3S,5S)-3-(2-aminoethyl)-2-oxo-1-((S)-2-phenylbutyl)-1,4-diazepan-5-yl)methyl)-3,4-dichlorobenzamide] was less than 1 µM. The value for `CCC[C@@H](CN1CC[C@@H](CNC(=O)c2ccc3ccccc3c2)N[C@@H](CCN2CCCCC2)C1=O)c1ccccc1` [Compound 432, N-(((3S,5S)-2-oxo-1-((R)-2-phenylpentyl)-3-(2-(piperidin-1-yl)ethyl)-1,4-diazepan-5-yl)methyl)-2-naphthamide] was less than 0.1 µM; that for `CC(C)NCC[C@@H]1N[C@H](CNC(=O)c2ccc3ccccc3c2)CCN(CC(c2ccccc2)c2ccccc2)C1=O` [Compound 382, N-(((3S,5S)-1-(2,2-diphenylethyl)-3-(2-(isopropylamino)ethyl)-2-oxo-1,4-diazepan-5-yl)methyl)-2-naphthamide] was less than 1 µM.

As to `O=C(NC[C@@H]1CCN(CC(c2ccccc2)c2ccccc2)C(=O)[C@H](CCN2CCCCC2)N1)c1ccc2cc(F)ccc2c1` [Compound 379, N-(((3S,5S)-1-(2,2-diphenylethyl)-2-oxo-3-(2-(piperidin-1-yl)ethyl)-1,4-diazepan-5-yl)methyl)-6-fluoro-2-naphthamide], the IC50 is less than 0.01 µM. Consider `CC[C@H](CN1CC[C@@H](CNC(=O)/C=C/c2ccc(Cl)cc2)N[C@@H](CCNC(C)C)C1=O)c1ccccc1` [Compound 408, (E)-3-(4-chlorophenyl)-N-(((3S,5S)-3-(2-(isopropylamino)ethyl)-2-oxo-1-((S)-2-phenylbutyl)-1,4-diazepan-5-yl)methyl)acrylamide], for which the half-maximal inhibitory concentration (IC50) was less than 0.1 µM. Under `Cc1ccc(/C=C/C(=O)NC[C@@H]2CCN(CC(c3ccccc3)c3ccccc3)C(=O)[C@H](CCN3CCCCC3)N2)cc1` [Compound 285, (E)-N-(((3S,5S)-1-(2,2-diphenylethyl)-2-oxo-3-(2-(piperidin-1-yl)ethyl)-1,4-diazepan-5-yl)methyl)-3-p-tolylacrylamide] stands less than 0.1 µM; under `C=C(C)[C@@H](CC)CN1CC[C@@H](CNC(=O)c2ccc3cc(Cl)ccc3c2)N[C@@H](CCN2CCCCC2)C1=O` [Compound 478, 6-chloro-N-(((3S,5S)-1-((R)-2-ethyl-3-methylbut-3-enyl)-2-oxo-3-(2-(piperidin-1-yl)ethyl)-1,4-diazepan-5-yl)methyl)-2-naphthamide], less than 0.1 µM; under `C[C@@H](CN1CC[C@@H](CNC(=O)c2ccc3ccccc3c2)N[C@@H](CCCN)C1=O)c1ccccc1` [Compound 357, N-(((3S,5S)-3-(3-aminopropyl)-2-oxo-1-((R)-2-phenylpropyl)-1,4-diazepan-5-yl)methyl)-2-naphthamide], less than 10 µM. For `CCC(CC)CN1CC[C@@H](CNC(=O)c2ccc3ccccc3c2)N[C@@H](CCN2CCCCC2)C1=O` [Compound 333, N-(((3S,5S)-1-(2-ethylbutyl)-2-oxo-3-(2-(piperidin-1-yl)ethyl)-1,4-diazepan-5-yl)methyl)-2-naphthamide], the IC50 was less than 0.1 µM. On to `NCCC[C@@H]1N[C@H](CNC(=O)c2ccc3ccccc3c2)CCN(Cc2cccc(Cl)c2Cl)C1=O` [Compound 318, N-(((3S,5S)-3-(3-aminopropyl)-1-(2,3-dichlorobenzyl)-2-oxo-1,4-diazepan-5-yl)methyl)-2-naphthamide], for which the IC50 was less than 10 µM. The value for `CC[C@H](CN1CC[C@@H](CNC(=O)c2ccc3cc(Cl)ccc3c2)N[C@@H](CCN(C(C)=O)C(C)C)C1=O)c1ccccc1` [Compound 498, 6-chloro-N-(((3S,5S)-3-(2-(N-isopropylacetamido)ethyl)-2-oxo-1-((S)-2-phenylbutyl)-1,4-diazepan-5-yl)methyl)-2-naphthamide] was less than 1 µM; that for `NC[C@@H]1N[C@H](CNC(=O)c2ccc3ccccc3c2)CCN(CC(c2ccccc2)c2ccccc2)C1=O` [Compound 271, N-(((3S,5S)-3-(aminomethyl)-1-(2,2-diphenylethyl)-2-oxo-1,4-diazepan-5-yl)methyl)-2-naphthamide] was less than 1 µM; that for `CC1CC(C)CC(CN2CC[C@@H](CNC(=O)c3ccc(Cl)c(Cl)c3)N[C@@H](CCN)C2=O)C1` (stereo partly drawn) [Compound 375, N-(((3S,5S)-3-(2-aminoethyl)-1-((3,5-dimethylcyclohexyl)methyl)-2-oxo-1,4-diazepan-5-yl)methyl)-3,4-dichlorobenzamide] was less than 1 µM. On to `NCCCC[C@@H]1N[C@H](CNC(=O)[C@@H]2Cc3ccccc3CN2)CCN(CC(c2ccccc2)c2ccccc2)C1=O` [Compound 127, (S)—N-(((3S,5S)-3-(4-aminobutyl)-1-(2,2-diphenylethyl)-2-oxo-1,4-diazepan-5-yl)methyl)-1,2,3,4-tetrahydroisoquinoline-3-carboxamide], for which the IC50 was less than 10 µM.

For `NCCC[C@@H]1N[C@H](CNC(=O)c2cc3ccccc3[nH]2)CCN(CC(c2ccccc2)c2ccccc2)C1=O` [Compound 107, N-(((3S,5S)-3-(3-aminopropyl)-1-(2,2-diphenylethyl)-2-oxo-1,4-diazepan-5-yl)methyl)-1H-indole-2-carboxamide], the half-maximal inhibitory concentration (IC50) is less than 1 µM. For `C=C(C)C(CC)CN1CC[C@@H](CNC(=O)c2ccc3cc(Cl)ccc3c2)N[C@@H](CCN)C1=O` (stereo partly drawn) [Compound 477, N-(((3S,5S)-3-(2-aminoethyl)-1-(2-ethyl-3-methylbut-3-enyl)-2-oxo-1,4-diazepan-5-yl)methyl)-6-chloro-2-naphthamide], the IC50 was less than 0.01 µM. On to `COc1cc(CN2CC[C@@H](CNC(=O)c3ccc4ccccc4c3)N[C@@H](CCCN)C2=O)cc(OC)c1` [Compound 316, N-(((3S,5S)-3-(3-aminopropyl)-1-(3,5-dimethoxybenzyl)-2-oxo-1,4-diazepan-5-yl)methyl)-2-naphthamide], for which the IC50 is less than 10 µM. Under `CC[C@H](CN1CC[C@@H](CNC(=O)c2ccc(-c3ccccc3)cc2)N[C@@H](CCN2CCCCC2)C1=O)c1ccccc1` [Compound 495, N-(((3S,5S)-2-oxo-1-((S)-2-phenylbutyl)-3-(2-(piperidin-1-yl)ethyl)-1,4-diazepan-5-yl)methyl)biphenyl-4-carboxamide] stands less than 0.1 µM; under `NCCCC[C@@H]1N[C@H](CNC(=O)Cc2ccc(-c3ccccc3)cc2)CCN(Cc2ccc3ccccc3c2)C1=O` [Compound 121, N-(((3S,5S)-3-(4-aminobutyl)-1-(naphthalen-2-ylmethyl)-2-oxo-1,4-diazepan-5-yl)methyl)-2-(biphenyl-4-yl)acetamide], less than 1 µM; under `COc1ccccc1/C=C/C(=O)NC[C@@H]1CCN(CC(c2ccccc2)c2ccccc2)C(=O)[C@H](CCCNC(=N)N)N1` [Compound 169, (E)-N-(((3S,5S)-1-(2,2-diphenylethyl)-3-(3-guanidinopropyl)-2-oxo-1,4-diazepan-5-yl)methyl)-3-(2-methoxyphenyl)acrylamide], less than 1 µM.
